In patent publication US4308267A, “7-[2-Alkoxyimino-2-(amino-thiazole)acetami do]-3-[1-(sulfaminoalkly)tetrazolthiomethyl]cephalosporins” (SmithKline Corporation, priority 1980, dated 1981):
Values after ≈ are worked out from the molar mass of the structure shown. Counter-ions that a name gives are not always drawn.

Assays:
Staph. aureus HH 127 = assay: minimum inhibitory concentration, in vitro screen (Table I, strain 1); format: cell-based; conditions: Staphylococcus aureus, HH127; Staph. aureus HH 127, lactamase producer
From the text: (§1) The compounds of this invention are useful as broad spectrum antibacterial agents against both Gram-positive and Gram-negative organisms. […] Data for 7-[syn-2-methoxyimino-2-(2-amino-4-thiazolyl)acetamido]cephalosporanic acid (cefatoxime) are also included for comparison.

Staph. aureus 671 = assay: minimum inhibitory concentration, in vitro screen (Table I, strain 2); format: cell-based; conditions: Staphylococcus aureus; Staph. aureus 671, lactamase producer
From the text: as §1

Staph. aureus 674 = assay: minimum inhibitory concentration, in vitro screen (Table I, strain 3); format: cell-based; conditions: Staphylococcus aureus
From the text: as §1

Strep. faecalis HH 34358 = assay: minimum inhibitory concentration, in vitro screen (Table I, strain 4); format: cell-based; conditions: Enterococcus faecalis, HH34358
From the text: as §1

E. coli SK&F 12140 = assay: minimum inhibitory concentration, in vitro screen (Table I, strain 5); format: cell-based; conditions: Escherichia coli
From the text: as §1

E. coli 804 = assay: minimum inhibitory concentration, in vitro screen (Table I, strain 6); format: cell-based; conditions: Escherichia coli; E. coli 804, lactamase producer
From the text: as §1

[1] = tested on: Kleb. pneumoniae SK&F 4200; assay: minimum inhibitory concentration, in vitro screen (Table I, strain 7); format: cell-based; conditions: Klebsiella pneumoniae
From the text: as §1

[2] = tested on: Kleb. pneumoniae SK&F 1200; assay: minimum inhibitory concentration, in vitro screen (Table I, strain 8); format: cell-based; conditions: Klebsiella pneumoniae
From the text: as §1

Kleb. pneumoniae 982 = assay: minimum inhibitory concentration, in vitro screen (Table I, strain 9); format: cell-based; conditions: Klebsiella pneumoniae; Kleb. pneumoniae 982, lactamase producer
From the text: as §1

P. mirabilis PM-444 = assay: minimum inhibitory concentration, in vitro screen (Table I, strain 10); format: cell-based; conditions: Proteus mirabilis, PM444
From the text: as §1

Pseudo. aeruginosa HH 63 = assay: minimum inhibitory concentration, in vitro screen (Table I, strain 11); format: cell-based; conditions: Pseudomonas aeruginosa, HH63
From the text: as §1

[3] = tested on: Serratia marcescens ATCC 13880; assay: minimum inhibitory concentration, in vitro screen (Table I, strain 12); format: cell-based; conditions: ATCC13880
From the text: as §1

Proteus morgani 179 = assay: minimum inhibitory concentration, in vitro screen (Table I, strain 13); format: cell-based
From the text: as §1

[4] = tested on: Enterobacter aerogenes ATCC 13048; assay: minimum inhibitory concentration, in vitro screen (Table I, strain 14); format: cell-based; conditions: Klebsiella aerogenes, ATCC13048
From the text: as §1

Enterobacter cloacae 921 = assay: minimum inhibitory concentration, in vitro screen (Table I, strain 15); format: cell-based
From the text: as §1

Pseudo. aeruginosa 647 = assay: minimum inhibitory concentration, in vitro screen (Table I, strain 16); format: cell-based; conditions: Pseudomonas aeruginosa
From the text: as §1

E. coli 12140 = assay: standard in vivo antibacterial test in mice, ED50 (Table 2); conditions: Escherichia coli
From the text: (§2) Table 2 sets forth ED50 's for Compound A, cefamandole and cefatoxime.

S. aureus HH 127 = assay: as above; conditions: Staphylococcus aureus
From the text: as §2

[5] = pharmacokinetics in mouse (Table 3); format: in vivo; conditions: for half-life: in vivo; for half-life / concentration at 2 h / Cmax / dose excreted: mouse, 20 mg/kg; for concentration at 2 h / Cmax: serum; for concentration at 2 h: read-out: Serum Level at 2 hrs.; for Cmax: read-out: Peak Serum Level; for dose excreted: urine, read-out: Urinary Recovery
in vitro = in vitro ADME; conditions: human serum proteins; read-out: Binding to Human Serum Proteins (converted)
[6] = tested on: Gram-negative bacteria including those which are β-lactamase producers; assay: standard in vitro screens (general statement); format: cell-based; conditions: especially against Gram-negative bacteria including β-lactamase producers
From the text: as §1

bacterial infections = assay: standard in vivo tests in mice (general statement)
From the text: as §2

| Structure (SMILES) | MIC (Staph. aureus HH 127) [µg/mL] | MIC (Staph. aureus 671) [µg/mL] | MIC (Staph. aureus 674) [µg/mL] | MIC (Strep. faecalis HH 34358) [µg/mL] | MIC (E. coli SK&F 12140) [µg/mL] | MIC (E. coli 804) [µg/mL] | MIC [1] [µg/mL] | MIC [2] [µg/mL] | MIC (Kleb. pneumoniae 982) [µg/mL] | MIC (P. mirabilis PM-444) [µg/mL] | MIC (Pseudo. aeruginosa HH 63) [µg/mL] | MIC [3] [µg/mL] | MIC (Proteus morgani 179) [µg/mL] | MIC [4] [µg/mL] | MIC (Enterobacter cloacae 921) [µg/mL] | MIC (Pseudo. aeruginosa 647) [µg/mL] | half-life [5] [min] | concentration at 2 h [5] [ng/mL] | Cmax [5] [ng/mL] | dose excreted [5] [%] | other results |
| --- | --- | --- | --- | --- | --- | --- | --- | --- | --- | --- | --- | --- | --- | --- | --- | --- | --- | --- | --- | --- | --- |
| Cn1nnnc1SCC1=C(C(=O)O)N2C(=O)[C@@H](NC(=O)[C@H](O)c3ccccc3)[C@H]2SC1 [Cefamandole] | 1.6 (≈ 3.46 µM) | 6.3 (≈ 13.6 µM) | ≤ 0.1 | 25 (≈ 54.1 µM) | 0.8 (≈ 1.73 µM) | > 100 | 1.6 (≈ 3.46 µM) | 0.4 (≈ 0.865 µM) | > 100 | 0.4 (≈ 0.865 µM) | > 100 | 12.5 (≈ 27 µM) | 1.6 (≈ 3.46 µM) | 1.6 (≈ 3.46 µM) | 3.1 (≈ 6.7 µM) | > 100 | 12 | 1000 | 34000 | 45 | ED50 (E. coli 12140; * representative value): 0.9 mg/kg; ED50 (S. aureus HH 127; HH127, * representative value): 2.2 mg/kg; fraction unbound (in vitro): 0.39 |
| CO/N=C(\C(=O)N[C@@H]1C(=O)N2C(C(=O)O)=C(COC(C)=O)CS[C@H]12)c1csc(N)n1 [Cefatoxime, 7-[syn-2-methoxyimino-2-(2-amino-4-thiazolyl)acetamido]cephalosporanic acid] | 1.6 (≈ 3.51 µM) | 0.4 (≈ 0.878 µM) | 0.8 (≈ 1.76 µM) | > 100 | ≤ 0.1 | 0.2 (≈ 0.439 µM) | ≤ 0.1 | ≤ 0.1 | 0.2 (≈ 0.439 µM) | ≤ 0.1 | 6.3 (≈ 13.8 µM) | ≤ 0.1 | ≤ 0.1 | ≤ 0.1 | ≤ 0.1 | 3.1 (≈ 6.81 µM) | 27 | < 1000 | 25000 | 13 | ED50 (E. coli 12140): < 0.2 mg/kg; ED50 (S. aureus HH 127; HH127): 10.5 mg/kg; fraction unbound (in vitro): 0.61 |
| CO/N=C(\C(=O)N[C@@H]1C(=O)N2C(C(=O)O)=C(CSc3nnnn3CCNS(=O)(=O)O)CS[C@H]12)c1csc(N)n1 [Compound A, 7-[syn-2-methoxyimino-2-(2-amino-4-thiazolyl)acetamido]-3-[1-(2-sulfaminoethyl)tetrazo-5-ylthiomethyl]-3-cephem-4-carboxylic acid disodium salt] | 6.3 | 3.1 | 6.3 | > 100 | ≤ 0.1 | 0.4 | ≤ 0.1 | ≤ 0.1 | 1.6 | ≤ 0.1 | 12.5 | ≤ 0.1 | ≤ 0.1 | 0.2 | 0.2 | 6.3 | 114 | 52000 | 78000 | 24 | ED50 (E. coli 12140): 0.4 mg/kg; ED50 (S. aureus HH 127; HH127): 21 mg/kg; peak serum levels, serum levels at two hours and half-life ([5]; compared to cefatoxime and cefamandole): better for Compound A compared to cefatoxime and cefamandole; pharmacokinetic properties ([5]; general statement): unexpected improved pharmacokinetic properties; fraction unbound (in vitro): 0.3; activity in standard in vitro screens [6]: high activity; antibacterial activity in standard in vivo tests (bacterial infections): high antibacterial activity |
